Assay [1] deals with T1, Serine/threonine-protein kinase Nek3 (Homo sapiens) (UniProt P51956).
T1 sequence (whole entry): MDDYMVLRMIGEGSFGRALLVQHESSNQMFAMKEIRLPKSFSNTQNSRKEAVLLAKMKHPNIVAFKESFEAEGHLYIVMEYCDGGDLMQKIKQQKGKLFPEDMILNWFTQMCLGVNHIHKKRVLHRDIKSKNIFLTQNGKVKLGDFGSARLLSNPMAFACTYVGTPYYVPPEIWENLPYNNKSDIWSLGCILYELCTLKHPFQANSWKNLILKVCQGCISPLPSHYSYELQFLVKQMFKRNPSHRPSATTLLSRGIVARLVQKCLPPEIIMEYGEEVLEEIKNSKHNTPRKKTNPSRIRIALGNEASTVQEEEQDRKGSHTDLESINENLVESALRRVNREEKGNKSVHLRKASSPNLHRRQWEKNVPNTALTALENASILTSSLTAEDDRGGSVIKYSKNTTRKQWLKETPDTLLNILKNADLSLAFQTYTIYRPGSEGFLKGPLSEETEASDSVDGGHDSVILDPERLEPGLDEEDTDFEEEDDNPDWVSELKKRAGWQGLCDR
Briefly: Residual activity of human NEK3 using myelin basic protein as substrate at 1 uM in presence of 32P-ATP by Hotspot assay relative to control.

Assay [2] has as its target Serine/threonine-protein kinase 10 (Homo sapiens) (UniProt O94804). In words: Inhibition of human LOK/STK10 using RLGRDKYKTLRQIRQ as substrate at 1 uM in presence of 32P-ATP by Hotspot assay relative to control; values are per cent of control.
The target in assay [3] is T2, Ephrin type-B receptor 2 (Homo sapiens) (UniProt P29323).
T2 sequence (whole entry): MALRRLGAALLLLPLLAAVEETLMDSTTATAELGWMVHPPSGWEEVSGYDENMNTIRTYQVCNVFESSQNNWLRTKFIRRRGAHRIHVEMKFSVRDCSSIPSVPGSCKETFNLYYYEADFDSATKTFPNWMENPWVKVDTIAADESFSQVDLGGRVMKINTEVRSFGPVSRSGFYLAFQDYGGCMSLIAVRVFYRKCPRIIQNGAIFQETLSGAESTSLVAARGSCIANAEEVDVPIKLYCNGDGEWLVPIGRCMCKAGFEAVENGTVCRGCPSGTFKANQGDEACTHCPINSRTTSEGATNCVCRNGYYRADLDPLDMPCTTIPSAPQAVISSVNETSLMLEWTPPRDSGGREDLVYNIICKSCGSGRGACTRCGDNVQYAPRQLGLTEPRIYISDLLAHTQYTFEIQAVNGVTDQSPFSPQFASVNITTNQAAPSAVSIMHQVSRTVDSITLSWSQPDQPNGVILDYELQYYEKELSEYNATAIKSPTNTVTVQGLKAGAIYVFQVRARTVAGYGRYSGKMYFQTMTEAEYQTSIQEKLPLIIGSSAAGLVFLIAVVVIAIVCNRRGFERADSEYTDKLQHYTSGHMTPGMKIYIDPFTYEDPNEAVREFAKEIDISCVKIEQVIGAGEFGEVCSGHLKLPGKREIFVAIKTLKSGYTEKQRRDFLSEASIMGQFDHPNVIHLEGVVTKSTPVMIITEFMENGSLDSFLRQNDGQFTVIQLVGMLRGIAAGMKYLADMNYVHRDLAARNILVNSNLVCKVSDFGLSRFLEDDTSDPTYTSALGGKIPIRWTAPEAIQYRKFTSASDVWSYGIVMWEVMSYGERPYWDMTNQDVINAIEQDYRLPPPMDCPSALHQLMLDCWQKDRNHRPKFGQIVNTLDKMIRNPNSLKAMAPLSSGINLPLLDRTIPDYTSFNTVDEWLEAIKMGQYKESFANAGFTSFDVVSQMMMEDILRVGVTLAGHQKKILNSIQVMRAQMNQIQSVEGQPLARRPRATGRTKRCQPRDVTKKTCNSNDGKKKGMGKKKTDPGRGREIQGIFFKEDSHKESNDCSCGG
In words: Inhibition of human EPHB2 using poly[Glu:Tyr] (4:1) as substrate at 1 uM in presence of 32P-ATP by Hotspot assay relative to control; values are per cent of control.

The target of assay [4] is T3, Serine/threonine-protein kinase Sgk3 (Homo sapiens) (UniProt Q96BR1).
T3 sequence (whole entry): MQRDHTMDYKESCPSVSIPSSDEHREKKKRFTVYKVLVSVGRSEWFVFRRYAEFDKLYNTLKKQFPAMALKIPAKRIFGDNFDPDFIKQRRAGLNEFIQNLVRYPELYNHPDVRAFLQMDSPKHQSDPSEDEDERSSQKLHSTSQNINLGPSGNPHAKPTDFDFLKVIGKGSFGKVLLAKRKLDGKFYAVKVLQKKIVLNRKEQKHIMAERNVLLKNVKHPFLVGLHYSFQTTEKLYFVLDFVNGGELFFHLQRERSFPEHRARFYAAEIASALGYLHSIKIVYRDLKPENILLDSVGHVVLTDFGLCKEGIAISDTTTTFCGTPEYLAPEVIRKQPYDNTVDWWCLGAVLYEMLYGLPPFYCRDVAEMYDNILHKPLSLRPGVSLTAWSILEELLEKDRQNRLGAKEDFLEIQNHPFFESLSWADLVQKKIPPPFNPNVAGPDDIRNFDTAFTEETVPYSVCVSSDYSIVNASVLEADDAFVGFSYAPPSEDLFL
In words: Inhibition of human SGK3/SGKL using KGSGSGRPRTSSFAEG as substrate at 1 uM in presence of 32P-ATP by Hotspot assay relative to control; values are per cent of control.

The target of assay [5] is Calcium/calmodulin-dependent protein kinase type 1B (Homo sapiens) (UniProt Q6P2M8). Briefly: Inhibition of human CAMK1b using KKALRRQETVDAL as substrate at 1 uM in presence of 32P-ATP by Hotspot assay relative to control; values are per cent of control.
Calcium/calmodulin-dependent protein kinase type 1B (Homo sapiens), sequence (Q6P2M8 whole entry): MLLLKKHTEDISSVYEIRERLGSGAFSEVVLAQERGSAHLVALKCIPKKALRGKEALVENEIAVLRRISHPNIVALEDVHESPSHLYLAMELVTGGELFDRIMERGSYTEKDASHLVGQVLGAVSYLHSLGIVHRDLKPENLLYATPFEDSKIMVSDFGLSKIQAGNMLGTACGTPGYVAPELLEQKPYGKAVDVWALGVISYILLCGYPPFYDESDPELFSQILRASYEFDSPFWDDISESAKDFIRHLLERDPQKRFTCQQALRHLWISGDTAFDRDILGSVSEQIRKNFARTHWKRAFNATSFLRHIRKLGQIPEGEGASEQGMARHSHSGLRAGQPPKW

Serine/threonine-protein kinase 10 (Homo sapiens), sequence (O94804 whole entry, looked up): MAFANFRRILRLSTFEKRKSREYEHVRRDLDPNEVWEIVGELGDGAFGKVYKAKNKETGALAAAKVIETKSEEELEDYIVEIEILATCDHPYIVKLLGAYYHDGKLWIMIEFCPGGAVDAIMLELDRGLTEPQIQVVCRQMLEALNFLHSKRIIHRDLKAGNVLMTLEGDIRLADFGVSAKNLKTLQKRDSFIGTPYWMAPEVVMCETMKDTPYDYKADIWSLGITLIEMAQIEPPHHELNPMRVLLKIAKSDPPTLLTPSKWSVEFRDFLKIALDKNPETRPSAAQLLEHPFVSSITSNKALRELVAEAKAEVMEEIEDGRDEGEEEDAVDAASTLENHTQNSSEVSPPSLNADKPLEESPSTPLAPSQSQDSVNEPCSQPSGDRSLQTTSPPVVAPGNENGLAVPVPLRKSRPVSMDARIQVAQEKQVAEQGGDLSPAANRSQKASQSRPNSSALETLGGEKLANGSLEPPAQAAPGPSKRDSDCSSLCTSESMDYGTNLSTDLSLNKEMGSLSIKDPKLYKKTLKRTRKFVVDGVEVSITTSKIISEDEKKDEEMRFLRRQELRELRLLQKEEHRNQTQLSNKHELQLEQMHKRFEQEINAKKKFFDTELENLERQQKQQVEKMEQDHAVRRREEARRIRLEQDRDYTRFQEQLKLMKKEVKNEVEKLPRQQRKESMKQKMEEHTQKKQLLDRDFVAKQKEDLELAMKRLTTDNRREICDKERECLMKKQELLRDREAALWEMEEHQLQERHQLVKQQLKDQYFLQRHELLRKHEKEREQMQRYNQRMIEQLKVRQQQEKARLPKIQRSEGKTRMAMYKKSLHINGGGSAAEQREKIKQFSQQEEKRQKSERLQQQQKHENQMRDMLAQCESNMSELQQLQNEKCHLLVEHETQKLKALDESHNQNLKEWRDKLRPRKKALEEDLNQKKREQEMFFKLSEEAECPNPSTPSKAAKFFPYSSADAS

One may read the residual activity as the signal under treatment as a percentage of the control signal. For the compound `CC(C)S(=O)(=O)c1ccc2nccc(Nc3ccc4scnc4c3)c2c1`, the residual activity amounted to 92% in assay [1]; 70.9% in assay [2]; 78.7% in assay [3]; 106% in assay [4]; 87.8% in assay [5].

As for `CNC(=O)c1ccc2c(c1)ncn2-c1ccc(CC(=O)OC(C)(C)C)cc1`, the residual activity worked out at 91.3% in assay [1]; 96.8% in assay [2]; 95% in assay [3]; 96.7% in assay [4]; 90.2% in assay [5].

Turning to `Cc1cc(-c2cnc(N)c3c(-c4ccc5scnc5c4)csc23)n(C)n1`, the residual activity in assay [1] was 99.7%; in assay [2], 78.2%; in assay [3], 31%; in assay [4] it was 97.9%; in assay [5], 98.5%.

These data come from ChEMBL document CHEMBL5649166, “RIP3 induces apoptosis independent of pronecrotic kinase activity” (Mol Cell, 2014).
